We go through four compounds from the supplement of paper PMC10307832.

For the first experiment, the system named is RERF-LC-KJ. As to the kind of experiment: relative viability (nuclei count vs DMSO), 5 days (fraction); higher = more cells survive. As to conditions: first compound 6.325 µM. The method, boiled down: (§1)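 Relative viability equals treated-well nuclei counts divided by vehicle-well nuclei counts. Counts came from 4× images of lung cancer cell lines grown in 1536-well plates for 5 days after pin-tool dosing on the day after seeding. Dosing used one drug alone or a fixed anchor-drug dose plus five library-drug doses (not always all listed) in √10 steps, and values are medians of duplicate plates.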
For the compound `COCC1(CO)C(=O)C2CCN1CC2` (configuration not stated) [PRIMA-1MET] + CC(=O)c1c(C)c2cnc(Nc3ccc(N4CCNCC4)cn3)nc2n(C2CCCC2)c1=O [Palbociclib] (partner 0.5 µM), the relative viability came to 1.08.

Take `COCC1(CO)C(=O)C2CCN1CC2` (configuration not stated) [PRIMA-1MET] + Cc1nc(Nc2ncc(C(=O)Nc3c(C)cccc3Cl)s2)cc(N2CCN(CCO)CC2)n1 [Dasatinib] (partner 0.075 µM): the relative viability worked out at 0.895.

As for `COCC1(CO)C(=O)C2CCN1CC2` (configuration not stated) [PRIMA-1MET] + O=C(c1cc(Cc2n[nH]c(=O)c3ccccc23)ccc1F)N1CCN(C(=O)C2CC2)CC1 [Olaparib] (partner 8 µM), the relative viability stood at 1.09.

Still in this experiment, the particulars now being: first compound 20 µM.
As for `COCC1(CO)C(=O)C2CCN1CC2` (configuration not stated) [PRIMA-1MET] + N=C(N)NC(=N)NCCc1ccccc1 [Phenformin] (partner 250 µM), the relative viability is 0.427.

`COCC1(CO)C(=O)C2CCN1CC2` (configuration not stated) [PRIMA-1MET] + CC(=O)c1c(C)c2cnc(Nc3ccc(N4CCNCC4)cn3)nc2n(C2CCCC2)c1=O [Palbociclib] (partner 0.5 µM) yielded a relative viability of 1.04.

On to `COCC1(CO)C(=O)C2CCN1CC2` (configuration not stated) [PRIMA-1MET] + Cc1nc(Nc2ncc(C(=O)Nc3c(C)cccc3Cl)s2)cc(N2CCN(CCO)CC2)n1 [Dasatinib] (partner 0.075 µM), for which the relative viability is 0.673.

Turning to `COCC1(CO)C(=O)C2CCN1CC2` (configuration not stated) [PRIMA-1MET] + O=C(c1cc(Cc2n[nH]c(=O)c3ccccc23)ccc1F)N1CCN(C(=O)C2CC2)CC1 [Olaparib] (partner 8 µM), the relative viability amounted to 0.922.

A further experiment relates to UMC-11. The experiment is described as above. The settings on record: first compound 0.2 µM. The method, boiled down: as §1
Regarding `COCC1(CO)C(=O)C2CCN1CC2` (configuration not stated) [PRIMA-1MET] + N=C(N)NC(=N)NCCc1ccccc1 [Phenformin] (partner 250 µM), the relative viability amounted to 0.348.

For `COCC1(CO)C(=O)C2CCN1CC2` (configuration not stated) [PRIMA-1MET] + CC(=O)c1c(C)c2cnc(Nc3ccc(N4CCNCC4)cn3)nc2n(C2CCCC2)c1=O [Palbociclib] (partner 0.5 µM), the relative viability stood at 0.31.

For `COCC1(CO)C(=O)C2CCN1CC2` (configuration not stated) [PRIMA-1MET] + Cc1nc(Nc2ncc(C(=O)Nc3c(C)cccc3Cl)s2)cc(N2CCN(CCO)CC2)n1 [Dasatinib] (partner 0.075 µM), the relative viability came to 0.53.

The compound `COCC1(CO)C(=O)C2CCN1CC2` (configuration not stated) [PRIMA-1MET] + O=C(c1cc(Cc2n[nH]c(=O)c3ccccc23)ccc1F)N1CCN(C(=O)C2CC2)CC1 [Olaparib] (partner 8 µM) had a relative viability of 0.526.

The experiment is the same for the next values; noted with them: first compound 0.6325 µM.
`COCC1(CO)C(=O)C2CCN1CC2` (configuration not stated) [PRIMA-1MET] + N=C(N)NC(=N)NCCc1ccccc1 [Phenformin] (partner 250 µM) registered a relative viability of 0.31.

`COCC1(CO)C(=O)C2CCN1CC2` (configuration not stated) [PRIMA-1MET] + CC(=O)c1c(C)c2cnc(Nc3ccc(N4CCNCC4)cn3)nc2n(C2CCCC2)c1=O [Palbociclib] (partner 0.5 µM) returned a relative viability of 0.362.

Consider `COCC1(CO)C(=O)C2CCN1CC2` (configuration not stated) [PRIMA-1MET] + Cc1nc(Nc2ncc(C(=O)Nc3c(C)cccc3Cl)s2)cc(N2CCN(CCO)CC2)n1 [Dasatinib] (partner 0.075 µM), for which the relative viability turned out to be 0.466.

Compound `COCC1(CO)C(=O)C2CCN1CC2` (configuration not stated) [PRIMA-1MET] + O=C(c1cc(Cc2n[nH]c(=O)c3ccccc23)ccc1F)N1CCN(C(=O)C2CC2)CC1 [Olaparib] (partner 8 µM) gave a relative viability of 0.312.

The experiment is the same for the next values; noted with them: first compound 2 µM.
On to `COCC1(CO)C(=O)C2CCN1CC2` (configuration not stated) [PRIMA-1MET] + N=C(N)NC(=N)NCCc1ccccc1 [Phenformin] (partner 250 µM), for which the relative viability was 0.264.

The compound `COCC1(CO)C(=O)C2CCN1CC2` (configuration not stated) [PRIMA-1MET] + CC(=O)c1c(C)c2cnc(Nc3ccc(N4CCNCC4)cn3)nc2n(C2CCCC2)c1=O [Palbociclib] (partner 0.5 µM) yielded a relative viability of 0.268.

In turn, `COCC1(CO)C(=O)C2CCN1CC2` (configuration not stated) [PRIMA-1MET] + Cc1nc(Nc2ncc(C(=O)Nc3c(C)cccc3Cl)s2)cc(N2CCN(CCO)CC2)n1 [Dasatinib] (partner 0.075 µM) gave a relative viability of 0.504.

Take `COCC1(CO)C(=O)C2CCN1CC2` (configuration not stated) [PRIMA-1MET] + O=C(c1cc(Cc2n[nH]c(=O)c3ccccc23)ccc1F)N1CCN(C(=O)C2CC2)CC1 [Olaparib] (partner 8 µM): the relative viability is 0.376.

Staying with this experiment, now noted: first compound 6.325 µM.
`COCC1(CO)C(=O)C2CCN1CC2` (configuration not stated) [PRIMA-1MET] + N=C(N)NC(=N)NCCc1ccccc1 [Phenformin] (partner 250 µM) displayed a relative viability of 0.343.

Regarding `COCC1(CO)C(=O)C2CCN1CC2` (configuration not stated) [PRIMA-1MET] + CC(=O)c1c(C)c2cnc(Nc3ccc(N4CCNCC4)cn3)nc2n(C2CCCC2)c1=O [Palbociclib] (partner 0.5 µM), the relative viability is 0.356.

Compound `COCC1(CO)C(=O)C2CCN1CC2` (configuration not stated) [PRIMA-1MET] + Cc1nc(Nc2ncc(C(=O)Nc3c(C)cccc3Cl)s2)cc(N2CCN(CCO)CC2)n1 [Dasatinib] (partner 0.075 µM) came in with a relative viability of 0.464.

As for `COCC1(CO)C(=O)C2CCN1CC2` (configuration not stated) [PRIMA-1MET] + O=C(c1cc(Cc2n[nH]c(=O)c3ccccc23)ccc1F)N1CCN(C(=O)C2CC2)CC1 [Olaparib] (partner 8 µM), the relative viability stood at 0.417.

The experiment is the same for the next values; noted with them: first compound 20 µM.
Regarding `COCC1(CO)C(=O)C2CCN1CC2` (configuration not stated) [PRIMA-1MET] + N=C(N)NC(=N)NCCc1ccccc1 [Phenformin] (partner 250 µM), the relative viability was 0.254.

Compound `COCC1(CO)C(=O)C2CCN1CC2` (configuration not stated) [PRIMA-1MET] + CC(=O)c1c(C)c2cnc(Nc3ccc(N4CCNCC4)cn3)nc2n(C2CCCC2)c1=O [Palbociclib] (partner 0.5 µM) yielded a relative viability of 0.278.

In turn, `COCC1(CO)C(=O)C2CCN1CC2` (configuration not stated) [PRIMA-1MET] + Cc1nc(Nc2ncc(C(=O)Nc3c(C)cccc3Cl)s2)cc(N2CCN(CCO)CC2)n1 [Dasatinib] (partner 0.075 µM) came in with a relative viability of 0.444.

As for `COCC1(CO)C(=O)C2CCN1CC2` (configuration not stated) [PRIMA-1MET] + O=C(c1cc(Cc2n[nH]c(=O)c3ccccc23)ccc1F)N1CCN(C(=O)C2CC2)CC1 [Olaparib] (partner 8 µM), the relative viability came out at 0.406.
